Assay results published in patent publication US5192756A, “Aminosterol antibiotic” (The Children's Hospital of Pennsylvania, priority 1992, dated 1993).
Values after ≈ are worked out from the molar mass of the structure shown. “Also recorded” adds a separate entry of the source.

Experiments:
Serratia marcescens = test: Minimal inhibitory concentration, Serratia marcescens; assay type: cell-based; settings: ATCC8100; Serratia marcescens ATCC 8100; 1/2×TSB, 37° C., 18 to 24 hours
Experimental: (§1) Squalamine was assayed in vitro against several microbial organisms to evaluate its spectrum of activity.
(§2) Minimal inhibitory concentrations for the bacteria and yeast were determined by incubating 0.9-11×10^5 colony-forming units/ml of log-phase organisms in 1/2×tryptica soy broth (TSB) with increasing concentrations of sample in static 96-2311 microtiter plates (Corning, Inc., Corning, N.Y.) at 37° C. for 18 to 24 hours. The minimal inhibitory concentration is the concentration of sample at which no growth was observed. Control incubation in the absence of […] served to set a baseline value.
(§3) Initial sample concentrations were 2 mg/ml in 250 mM sodium acetate pH 6.6, 11.2 mM HCl, except taurolithocholic acid 3-sulfate which was 2 mg/ml in 50 mM sodium acetate, and squalamine to which HCl was not added because it was acidic following the last step of purification. Spermidine HCl, taurolithocholic acid 3-sulfate, melittin, holothurin and ampicillin were purchased from Sigma (St. Louis, Miss.). CHAPS (3-[(3-cholamidopropyl)dimethylammonio]-1-propane sulfonate dihydrate) was purchased from Aldrich (Milwaukee, Wis.). Conessine was purchased from Aldrich Rare Chemicals Division (Milwaukee, Wis.). Magainin-II amide and CPF-amide were made by Magainin Pharmaceuticals, Inc. (Plymouth Meeting, Penn.). The CPF peptide used in the assay has the sequence […]-NH2. (Richter, K., et al., J. Biol. Chem. 261, 3676-3680 (1986).

Strep. faecalis = test: Minimal inhibitory concentration, Strep. faecalis; assay type: cell-based; settings: Enterococcus faecalis, ATCC29212; Strep. faecalis ATCC 29212; 1/2×TSB, 37° C., 18 to 24 hours
Experimental: as §1, §2, §3

Pseudomonas aeruginosa = test: Minimal inhibitory concentration, Pseudomonas aeruginosa; assay type: cell-based; settings: ATCC27853; Pseudomonas aeruginosa ATCC 27853; 1/2×TSB, 37° C., 18 to 24 hours
Experimental: as §1, §2, §3

human erythrocytes = test: Hemolytic activity against human erythrocytes; assay type: cell-based
Experimental: Because of its structural resemblance to steroidal detergents, squalamine was assayed for its hemolytic activity against human erythrocytes.
Each sample was diluted in H2 O and was added to a 10% (vol/vol) suspension of human erythrocytes in phosphate buffered saline (PBS). Erythrocytes were collected with heparin and washed once in 1×PBS before the assay. Samples were incubated at 37° C. for ten minutes, centrifuged at 12,000× g for one minute, and the OD350 of the supernatant was measured. Addition of Triton X-100 (final concentration 0.1%) defined 100% hemolysis.

Staph. aureus = test: Minimal inhibitory concentration, Staph. aureus; assay type: cell-based; settings: Staphylococcus aureus, ATCC29213; Staph. aureus ATCC 29213; 1/2×TSB, 37° C., 18 to 24 hours
Experimental: as §1, §2, §3

E. coli D31 [1] = test: Protease resistance of antimicrobial activity (proteinase K); assay type: in vitro ADME; settings: proteinase K 2 mg/ml, one hour, 37° C.; E. coli D31 lawn
Experimental: Proteinase K (final concentration 2 mg/ml) was added to 0.2 μg/μl squalamine or 0.8 μg/μl magainin II amide in 1×phosphate-buffered saline. After a one hour incubation at 37° C., 2 μl of each sample was applied to the lawn of E. coli D31.

Candida albicans = test: Minimal inhibitory concentration, Candida albicans; assay type: cell-based; settings: ATCC14053; Candida albicans ATCC 14053; 1/2×TSB, 37° C., 18 to 24 hours
Experimental: as §1, §2, §3

[2] = tested on: several microbial organisms; test: In vitro antimicrobial spectrum (bacteria, fungi, protozoa), in words; assay type: cell-based
Experimental: as §1, §2, §3
(§4) Minimal disruptive concentration (the concentration at which physical disruption of the protozoa occurred) was determined for the protozoa by adding […] of sample (in sodium acetate as above) to […] of 1% trypticase soy broth containing P. caudatum (Nasco, Fort Atkinson, Wiss,). Organisms were observed by light microscopy for ten minutes.

E. coli D31 [3] = test: Heat resistance of antimicrobial activity (boiling); assay type: physicochemical; settings: 0.2 μg/ml in 1×phosphate buffered saline, boiled fifteen minutes, E. coli D31 lawn
Experimental: Squalamine at 0.2 μg/ml in 1×phosphate buffered saline was boiled for fifteen minutes. A 2 μl aliquot of the sample before and after boiling was applied to a lawn of E. coli D31.

E. coli = test: Minimal inhibitory concentration, E. coli; assay type: cell-based; settings: Escherichia coli, ATCC25922; E. coli ATCC 25922; 1/2×TSB, 37° C., 18 to 24 hours
Experimental: as §1, §2, §3

Paramecium caudatum = test: Minimal disruptive concentration, Paramecium caudatum; assay type: cell-based; settings: 1% trypticase soy broth, light microscopy for ten minutes, read-out: Minimal Inhibitory Concentration (minimal disruptive concentration for the protozoa)
Experimental: as §1, §3, §4

[4] = Tissue distribution of squalamine in Squalus acanthias
Experimental: The tissue distribution of squalamine was determined by extraction of freshly obtained tissues of Squalus using the same procedure as described in Example 1 for the stomach extraction. Other Squalus acanthias tissues (about 50 g of liver, gallbladder, spleen, testes, gill and intestine) were extracted as above, and purified through the C18 HPLC stage. Antimicrobial activity was detected in each tissue, and one reversed-phasefraction from each tissue was analyzed by FAB mass spectroscopy. The yield from the stomach was determined by spotting several dilutions onto a TLC plate and comparing the ninhydrin staining to a spermidine standard curve. The result agreed with the estimate obtained by NMR spectroscopy when the squalamine signal intensity was compared to that of a standard. An estimate of the yield of squalamine from other tissues was made by comparing the antimicrobial activity of reversed-phase fractions to the activity from the stomach.

Proteus vulgaris = test: Minimal inhibitory concentration, Proteus vulgaris; assay type: cell-based; settings: ATCC13315; Proteus vulgaris ATCC 13315; 1/2×TSB, 37° C., 18 to 24 hours
Experimental: as §1, §2, §3

CC(C)C(CC[C@@H](C)[C@H]1CC[C@H]2[C@@H]3[C@H](O)C[C@H]4C[C@@H](NCCCNCCCCN)CC[C@]4(C)[C@H]3CC[C@]12C)OS(=O)(=O)O (stereo partly drawn) [Squalamine, 3β(N-[3-aminopropyl]-1,4-butanediamine)-7α,24.zeta.-dihydroxy-5α-cholestane 24-sulfate]
MIC (Serratia marcescens): > 125 µg/mL | MIC (Strep. faecalis): 1 to 2 µg/mL (≈ 1.59 to 3.18 µM) | MIC (Pseudomonas aeruginosa): 4 to 8 µg/mL (≈ 6.37 to 12.7 µM) | hemolytic activity (in words) (human erythrocytes; FIG. 3, 37° C., ten minutes): exhibits some hemolytic activity, it occurs at higher concentrations than observed for a non-selective membrane disruptive amphipathic peptide, such as mellitin | antibiotic versus hemolytic concentration / selectivity (in words) (human erythrocytes; antibiotic activity compared with erythrocyte disruption): exerts antibiotic activity at concentrations below which erythrocyte disruption is observed | MIC (Staph. aureus): 1 to 2 µg/mL (≈ 1.59 to 3.18 µM) | antimicrobial activity after proteinase K digestion (E. coli D31 [1]): retained its activity; also recorded: resistant to boiling and protease treatment | MIC (Candida albicans): 4 to 8 µg/mL (≈ 6.37 to 12.7 µM) | antibacterial activity (in words) ([2]; bacteria of Table I): compares in antibacterial potency to ampicillin | antibiotic activity (in words) ([2]; bacteria, fungi, protozoa, concentration range studied): broad range of potent antibiotic activity against a plurality of microorganisms including gram-positive and gram-negative bacteria, fungi, protozoa and the like; also recorded: somewhat more potent than the Xenopus antimicrobial peptides | antimicrobial activity after boiling (E. coli D31 [3]): retained its antimicrobial activity after boiling | antimicrobial activity after boiling (E. coli D31 [3]; listed as squalamine): resistant to boiling and protease treatment | MIC (E. coli): 1 to 2 µg/mL (≈ 1.59 to 3.18 µM) | MIC (Paramecium caudatum): 4 to 8 µg/mL (≈ 6.37 to 12.7 µM) | squalamine content of tissue ([4]; gills): 0.5 μg/gm | squalamine content of tissue ([4]; intestine): 0.02 μg/gm | squalamine content of tissue ([4]; liver and gall bladder): 4-7 μg/gm | squalamine content of tissue ([4]; spleen): about 2 μg/gm | squalamine content of tissue ([4]; stomach): 1 μg/gm | squalamine content of tissue ([4]; testes): about 2 μg/gm | MIC (Proteus vulgaris): 4 to 8 µg/mL (≈ 6.37 to 12.7 µM)
